In patent publication US9233965B2, “3,4-dihydropyrrolo[1,2-A]pyrazine-2,8(1H)-dicarboxamide derivatives, preparation thereof and therapeutic use thereof for diseases involving casein kinase 1 epsilon and/or casein kinase 1 delta” (SANOFI, priority 2010, dated 2016) one finds IC50 and melting point data, which are given here for 22 compounds.

SMILES strings stand for the structures.

Data set [1] deals with casein kinase 1 epsilon (CK1 epsilon) (Homo sapiens (Human), UniProt P49674). Briefly: Test A: inhibitory activity on CK1 epsilon, casein phosphorylation assay on ATP-33P filter plate. It counts as biochemical. Particulars: IC50 values or IC50 ranges (result of several experiments), ATP 10 μM final. Here is the method: The capacity of the compounds of the invention to inhibit the phosphorylation of casein by casein kinase 1 epsilon and/or delta may be evaluated according to the procedures described in document US 2005/0 131 012.
Test A: Inhibitory Activity on CK1 Epsilon Measured by Assay on an ATP-^33P Filter Plate
The effect of the compounds on inhibition of the phosphorylation of casein by the enzyme casein kinase 1 epsilon (CK1 epsilon) is measured, using a casein assay via filtration of ATP-^33P in vitro.
Casein kinase 1 epsilon (0.58 mg/ml) is obtained via fermentation and purification processes performed according to methods that are well known to those skilled in the art, or may also be obtained from Invitrogen Corporation™ (human CK1 epsilon).
The compounds are tested at five different concentrations so as to generate IC50 values, i.e. the concentration at which a compound is capable of inhibiting the enzymatic activity by 50%, or alternatively the percentage of inhibition at a concentration of 10 micromolar.
“U”-bottomed Falcon plates are prepared by placing 5 μL of solutions of the compounds according to the invention at concentrations of 10, 1, 0.1, 0.01 or 0.001 μM in different wells. The solutions of the compounds according to the invention at these various concentrations are prepared by diluting in a test buffer (Tris 50 mM pH 7.5, MgCl2 […], DTT 2 mM and EGTA 1 mM) a stock solution in DMSO at a concentration of 10 mM. Next, 5 μL of dephosphorylated casein are added to a final concentration of 0.2 μg/μL, 20 μL of CK1 epsilon to a final concentration of 3 ng/μL, and 20 μL of ATP-^33P to a final concentration of 0.02 μCi/μL mixed with cold ATP (10 μM final—approximately 2×10^6 CPM per well). The final total test volume per well is equal to 50 μL.
The “U”-bottomed Falcon® test plate mentioned above is vortexed, and then incubated at room temperature for 2 hours. After 2 hours the reaction is stopped by adding an ice-cold solution of 65 μL of cold ATP (2 mM) prepared in test buffer.
100 μL of the reaction mixture are then transferred from the “U”-bottomed Falcon® plate into Millipore® MAPH filter plates, preimpregnated with 25 μL of ice-cold 100% TCA.
The Millipore MAPH filter plates are agitated gently and are left to stand at room temperature for at least 30 minutes to precipitate the proteins.
After 30 minutes, the filter plates are sequentially washed and filtered with 2×150 μL of 20% TCA, 2×150 μL of 10% TCA and 2×150 μL of 5% TCA (6 washes in total per plate/900 μL per well).
The plates are left to dry overnight at room temperature. Next, 40 μL of Microscint-20 Packard® scintillation liquid are added per well and the plates are closed in a leaktight manner. The radiation emitted by each well is then measured for 2 minutes in a TopCount NXT Packard® scintillation counter, in which the values of CPM/well are measured.
The percentage inhibition of the capacity of the enzyme to phosphorylate the substrate (casein) is determined for each concentration of test compound. These inhibition data expressed as percentages are used to calculate the IC50 value for each compound compared with the controls.
The kinetic studies determined the KM value for ATP as being 21 μM in this test system.
Table 2 below gives the IC50 values or the IC50 inhibition ranges (result of several experiments) for the phosphorylation of Casein Kinase 1 Epsilon for a number of compounds according to the invention.

casein kinase 1 epsilon (CK1 epsilon), sequence (P49674 whole entry): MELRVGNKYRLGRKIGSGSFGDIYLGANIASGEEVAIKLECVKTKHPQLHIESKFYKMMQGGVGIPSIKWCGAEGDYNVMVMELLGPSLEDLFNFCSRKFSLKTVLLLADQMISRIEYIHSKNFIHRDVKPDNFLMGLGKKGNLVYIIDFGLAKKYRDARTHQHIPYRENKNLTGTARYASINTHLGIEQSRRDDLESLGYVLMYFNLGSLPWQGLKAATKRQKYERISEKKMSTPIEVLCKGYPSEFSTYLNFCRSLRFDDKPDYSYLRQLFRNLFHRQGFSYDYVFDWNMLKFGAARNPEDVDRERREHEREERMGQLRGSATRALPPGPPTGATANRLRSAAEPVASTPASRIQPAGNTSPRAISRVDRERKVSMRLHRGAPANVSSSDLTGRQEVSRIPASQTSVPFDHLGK

Take `COc1ccc(-c2cn3c(c2C(N)=O)CN(C(=O)NC(C)(C)C)CC3)cc1` [Compound 2, N^2-tert-butyl-7-(4-methoxyphenyl)-3,4-dihydropyrrolo[1,2-a]pyrazine-2,8(1H)-dicarboxamide]: the melting point (commonly the temperature of the solid-liquid transition) fell in the range of 197 to 198 °C. Moreover, the IC50 – broadly, the concentration at which inhibition is half-maximal – in data set [1] was below 1 nM.

With `CC(C)(C)NC(=O)N1CCn2c(c(C(N)=O)c(-c3cccc(OCc4ccccc4)c3)c2C2CC2)C1` [Compound 34, 7-[3-(benzyloxy)phenyl]-N^2-tert-butyl-6-cyclo-propyl-3,4-dihydropyrrolo[1,2-a]pyrazine-2,8(1H)-dicarboxamide], the melting point lay in the range of 156 to 158 °C. Besides, half-maximal inhibition in data set [1] (IC50) required 315 nM. In the case of `COc1ccc(-c2c(C(N)=O)c3n(c2C2CC2)CCN(C(=O)NC(C)(C)C)C3)cc1` [Compound 36, N^2-tert-butyl-6-cyclo-propyl-7-[4-(methoxy)phenyl]-3,4-dihydropyrrolo[1,2-a]pyrazine-2,8(1H)-dicarboxamide], the melting point is 177 to 179 °C. In data set [1], the IC50 was 46 to 75 nM. The like results for `CC(C)(C)NC(=O)N1CCn2c(c(C(N)=O)c(-c3ccc(Oc4ccccc4)cc3)c2C2CC2)C1` [Compound 39, N^2-tert-butyl-6-cyclo-propyl-7-(4-phenoxyphenyl)-3,4-dihydropyrrolo[1,2-a]pyrazine-2,8(1H)-dicarboxamide] were, in that order, 157 to 159 °C and 4 to 36 nM.

As for `CC(C)(C)NC(=O)N1CCn2c(c(C(N)=O)c(-c3ccc(OCc4ccccc4)cc3)c2C2CC2)C1` [Compound 40, 7-[4-(benzyloxy)phenyl]-N^2-tert-butyl-6-cyclo-propyl-3,4-dihydropyrrolo[1,2-a]pyrazine-2,8(1H)-dicarboxamide], the melting point lay in the range of 203 to 206 °C. The compound further came in with an IC50 in data set [1] of 38 nM.

Regarding `CC(C)(C)NC(=O)N1CCn2c(c(C(N)=O)c(-c3ccc(F)cc3)c2C2CC2)C1` [Compound 47, N^2-tert-butyl-6-cyclo-propyl-7-(4-fluorophenyl)-3,4-dihydropyrrolo[1,2-a]pyrazine-2,8(1H)-dicarboxamide], the melting point lay in the range of 220 to 223 °C. This compound showed a 50% inhibitory concentration (IC50) in data set [1] of 45 to 146 nM. `COc1ccc(-c2c(C(N)=O)c3n(c2C2CC2)CCN(C(=O)NC2(C4CC4)CC2)C3)cc1` [Compound 51, N^2-[1,1′-bi(cyclo-propyl)-1-yl]-6-cyclo-propyl-7-(4-methoxyphenyl)-3,4-dihydropyrrolo[1,2-a]pyrazine-2,8(1H)-dicarboxamide]: the melting point lay within 175 to 177 °C. Further, the IC50 in data set [1] was 40 nM.

`COc1ccc(-c2c(C(N)=O)c3n(c2C2CC2)CCN(C(=O)NC24CC5CC(CC2C5)C4)C3)cc1` [Compound 53, 6-cyclo-propyl-N^2-(hexahydro-2,5-methanopentalen-3a(1H)-yl)-7-(4-methoxyphenyl)-3,4-dihydropyrrolo[1,2-a]pyrazine-2,8(1H)-dicarboxamide] had a melting point of 216 to 219 °C. The compound also showed a half-maximal inhibitory concentration (IC50) in data set [1] of 7 nM. Compound `COc1ccc(-c2c(C(N)=O)c3n(c2C2CC2)CCN(C(=O)NC24CC5CC(CC(C5)C2)C4)C3)cc1` [Compound 55, N^2-(adamantan-1-yl)-6-cyclo-propyl-7-(4-methoxyphenyl)-3,4-dihydropyrrolo[1,2-a]pyrazine-2,8(1H)-dicarboxamide] displayed a melting point of 224 to 226 °C. Further, the IC50 in data set [1] lay in the range of 3 to 5 nM. On to `COc1ccc(-c2c(C(N)=O)c3n(c2C2CC2)CCN(C(=O)NC2CCOCC2)C3)cc1` [Compound 56, 6-cyclo-propyl-7-(4-methoxyphenyl)-N^2-(tetrahydro-2H-pyran-4-yl)-3,4-dihydropyrrolo[1,2-a]pyrazine-2,8(1H)-dicarboxamide], for which the melting point was 176 to 177 °C. The compound also registered a 50% inhibitory concentration (IC50) in data set [1] of 26 to 38 nM. `COCC(C)(C)NC(=O)N1CCn2c(c(C(N)=O)c(-c3ccc(OC)cc3)c2C2CC2)C1` [Compound 57, 6-cyclo-propyl-N^2-(1-methoxy-2-methylpropan-2-yl)-7-(4-methoxyphenyl)-3,4-dihydropyrrolo[1,2-a]pyrazine-2,8(1H)-dicarboxamide] came in with a melting point of 168 to 170 °C. The same compound yielded an IC50 in data set [1] of 36 nM.

Compound `CC(C)(C)NC(=O)N1CCn2c(F)c(-c3ccccc3)c(C(N)=O)c2C1` [Compound 58, N^2-tert-butyl-6-fluoro-7-phenyl-3,4-dihydropyrrolo[1,2-a]pyrazine-2,8(1H)-dicarboxamide] registered a melting point of 213 to 215 °C. In addition, the concentration for half-maximal inhibition (IC50) in data set [1] lay within 5 to 28 nM. Consider `Cc1cccc(-c2c(C(N)=O)c3n(c2Cl)CCN(C(=O)NC(C)(C)C)C3)c1` [Compound 61, N^2-tert-butyl-6-chloro-7-(3-methylphenyl)-3,4-dihydropyrrolo[1,2-a]pyrazine-2,8(1H)-dicarboxamide], for which the melting point lay within 196 to 197 °C. In data set [1], this compound returned an IC50 of 1 to 8 nM. For the compound `COc1ccc(-c2c(C(N)=O)c3n(c2Cl)CCN(C(=O)NC(C)(C)C)C3)cc1` [Compound 64, N^2-tert-butyl-6-chloro-7-(4-methoxyphenyl)-3,4-dihydropyrrolo[1,2-a]pyrazine-2,8(1H)-dicarboxamide], the melting point was in the range of 168 to 170 °C. The compound also gave a concentration for half-maximal inhibition (IC50) in data set [1] of 1 to 5 nM. Compound `CC(C)(C)NC(=O)N1CCn2c(Cl)c(-c3cccc(C#N)c3)c(C(N)=O)c2C1` [Compound 65, N^2-tert-butyl-6-chloro-7-(3-cyanophenyl)-3,4-dihydropyrrolo[1,2-a]pyrazine-2,8(1H)-dicarboxamide] showed a melting point of 192 to 195 °C. For the same compound, the IC50 in data set [1] lay in the range of 1 to 2 nM.

`CC(C)(C)NC(=O)N1CCn2c(Cl)c(-c3cccc(F)c3)c(C(N)=O)c2C1` [Compound 67, N^2-tert-butyl-6-chloro-7-(3-fluorophenyl)-3,4-dihydropyrrolo[1,2-a]pyrazine-2,8(1H)-dicarboxamide]: the melting point lay in the range of 196 to 198 °C. In data set [1], this compound came in with an IC50 of 1 to 5 nM. In data set [1], `CC(C)(C)ON=C1CCC(NC(=O)N2CCn3c(Cl)c(-c4cccc(F)c4)c(C(N)=O)c3C2)CC1` (stereo not drawn) [Compound 87, trans-6-chloro-7-(3-fluorophenyl)-N^2-(4-tert-butyloxyimino-cyclohexyl)-3,4-dihydropyrrolo[1,2-a]pyrazine-2,8(1H)-dicarboxamide] gave an IC50 below 1 nM. Still for that read-out and setting: for `NC(=O)c1c(-c2ccccc2)c(Cl)n2c1CN(C(=O)NC1CC3CCC1C3)CC2` (centres unmarked) [Compound 88, N^2-(bicyclo[2.2.1]hept-2-yl)-6-chloro-7-phenyl-3,4-dihydropyrrolo[1,2-a]pyrazine-2,8(1H)-dicarboxamide] the value was 3 to 5 nM.

In data set [1], `C[C@@H]1CC(NC(=O)N2CCn3c(Cl)c(-c4cccc(F)c4)c(C(N)=O)c3C2)C[C@H](C)O1` (stereo partly drawn) [Compound 100, cis-6-chloro-N^2-(2,6-dimethyl-tetrahydro-2H-pyran-4-yl)-7-(3-fluorophenyl)-3,4-dihydropyrrolo[1,2-a]pyrazine-2,8(1H)-dicarboxamide] yielded an IC50 above 1 nM. The compound `NC(=O)c1c(-c2ccccc2)c(Cl)n2c1CN(C(=O)NC1CCS(=O)(=O)C1)CC2` (centres unmarked) [Compound 101, 6-chloro-N^2-(1,1-dioxydotetrahydrothiophen-3-yl)-7-phenyl-3,4-dihydropyrrolo[1,2-a]pyrazine-2,8(1H)-dicarboxamide] registered an IC50 in data set [1] of 9 to 24 nM. `NC(=O)c1c(-c2cccc(F)c2)c(Cl)n2c1CN(C(=O)NC1CCS(=O)(=O)C1)CC2` (centres unmarked) [Compound 102, 6-chloro-N^2-(1,1-dioxydotetrahydrothiophen-3-yl)-7-(3-fluorophenyl)-3,4-dihydropyrrolo[1,2-a]pyrazine-2,8(1H)-dicarboxamide] displayed a 50% inhibitory concentration (IC50) in data set [1] of 4 to 11 nM. As to `NC(=O)c1c(-c2cccc(F)c2)c(Cl)n2c1CN(C(=O)NC1CCS(=O)(=O)CC1)CC2` [Compound 103, 6-chloro-N^2-(1,1-dioxydotetrahydro-2H-thiopyran-4-yl)-7-(3-fluorophenyl)-3,4-dihydropyrrolo[1,2-a]pyrazine-2,8(1H)-dicarboxamide], in data set [1], the half-inhibitory concentration (IC50) was in the range of 7 to 14 nM.
